# Experimental data reported in a melting point compilation (Tetko et al.; mined from patent text by program, amines drawn as free bases though some values may be those of a salt).
row,SMILES,melting point
1,CCC(CC)C1CC1(CN)C(=O)O (centres undefined),255 to 257 °C
2,O=C(O)CCNC(=O)OCC(Cl)(Cl)Cl,89.4 to 91 °C
3,CCOC(=O)C(=O)Nc1c([N+](=O)[O-])ccc2c1CCCC2,121 to 122 °C
4,Cn1cc(Br)nc(Nc2ccc3c(c2)CCNC3)c1=O,170 to 171 °C
5,CCc1ccc(C=NNC(=O)c2ccc(O)cc2)o1,60.5 °C
6,CCOC(=O)CCC1CCC(=O)N1 (centres undefined),60 to 61 °C
7,CC1COc2c(N3CCSCC3)c(F)cc3c(=O)c(C(=O)O)cn1c23 (centres undefined),> 300 °C
8,CNC(=S)C1(c2ccccn2)OCCCS1 (centres undefined),157 °C
9,Cc1cc(Cl)cc2c(=O)oc(-c3cc(Cl)nn3-c3ncccc3Cl)nc12,199 to 201 °C
10,"O=C1CCCCN1CCCC(=O)N1CCC(C2c3ncc(Br)cc3CCc3cc(Cl)cc(Br)c32)CC1 (single isomer, unassigned; (+))",101 to 102 °C
11,Nc1nc(-c2cc(Cl)ccc2Cl)nc(N2CC(O)C2)n1,256 to 257 °C
12,COc1cc2c(c(OC)c1OC)-c1cc3c(cc1COC2)OCO3,154 to 156 °C
13,CN1CC(CCn2cccn2)Oc2ncccc2C1=O (centres undefined),132 to 134 °C
14,C1=C(c2c[nH]c3ccccc23)CCN(CCCOc2cccc3[nH]ccc23)C1,192 to 194 °C
15,CCCCc1nc2c(N)nc3cccnc3c2n1CCNC(=O)OC(C)(C)C,118 to 120 °C
16,CC(C)(C)C12OOC1(c1cc3cc(O[Si](C)(C)C(C)(C)C)ccc3s1)OCC2(C)C (centres undefined),125 to 126 °C
17,Brc1ccc2scc(Br)c2c1,95 to 97 °C
18,Cc1ccc(CS(=O)C2=C(O)CC(C)(C)CC2=O)cc1 (centres undefined),89 to 90.5 °C
19,CN(C)CC(=Cc1ccc(/C=C/C(=O)O)cc1)O[Si](C)(C)C(C)(C)C,207 °C
20,CN1CCNC1=Nc1ccccc1N1CCOCC1,156 °C
21,O=C1c2c(Cl)cccc2-n2cnc(C(=O)n3ccnc3)c2[C@@H]2CCCN12,240 to 242 °C
22,COc1cc(Nc2c(C#N)cnc3cc(-c4ccc(C5OCCCO5)o4)ccc23)c(Cl)cc1Cl,224 to 229 °C
23,COc1ncnc(-c2cc(N)c(C#N)cc2F)c1Cl,186 to 189 °C
24,CON=C1CN(c2cc3c(cc2F)c(=O)c(C(=O)O)cn3C2CC2)CC12CN(C(=O)OC(C)(C)C)C2,255 to 256 °C
25,CSc1c2c3c(n1C)C(=O)C(=O)C(Cl)=C3NCC2,205 °C
26,C[Si](C)(C)C#Cc1ccnc(Cl)n1,51 to 54 °C

row,SMILES,melting point
1,CC(C)(/C=C/Br)C(=O)O,30 °C
2,O=C1CCCN1CCCCCCN1CCCC1=O,101 to 103 °C
3,O=C(Nc1c(Cl)cnn1-c1c(F)c(F)c(C(F)(F)F)c(F)c1F)C(Cl)Cl,115 to 116 °C
4,CC(C)(C)NS(=O)(=O)c1c[nH]c2ccccc12,157 to 158 °C
5,CN1CCN(c2cc3c(cc2F)c(=O)n(O)c(=O)n3-c2cccc(F)c2)CC1,176 to 178 °C
6,O=C(O)c1cc(-c2ncnc(C(F)F)c2Cl)c(F)cc1Cl,217 to 219 °C
7,CN(Sc1nc2ccccc2s1)C(=O)Oc1cccc2c1OC(C)(C)C2,92 to 93 °C
8,CCN(c1nc(F)ccc1[N+](=O)[O-])C1CCN(Cc2ccccc2)CC1,99 to 100 °C
9,Cc1csc(-c2c(C)c(NC(=O)CC(C)(C)C)c(C)c3c2OCC3c2ccc(C(C)C)cc2)n1 (centres undefined),240 to 241 °C
10,COC(=O)C(=O)c1cc(C(C)(C)C)c(O)c(C(C)(C)C)c1,82.5 to 84 °C
11,Cc1ccc2c(-c3cnc4[nH]cc(C(=O)N[C@H](C)C(=O)N5CC(C#N)C5)c4n3)nn(C)c2c1,260 to 275 °C
12,CC(=O)Nc1ccc2c(c1)C(CN1CC=C(c3cn(C)c4cc(Cl)ccc34)CC1)CC2 (centres undefined),189 to 193 °C
13,CC(C)C(C(=O)O)n1nc(Br)c(Br)c1Br (centres undefined),92 to 95 °C
14,N#CC1(c2cccs2)C2CC3CC(C2)CC1C3 (centres undefined),108 to 110 °C
15,CS(=O)(=O)NC(=O)Nc1ccc(Cl)cc1,225 to 235 °C
16,CCCCCCCCCCC(=O)C(=O)N[C@@H](CCCC)CCC(=O)O,50 to 52 °C
17,COC(=O)c1c(CC#N)ncn1C1OC(COC(C)=O)C(OC(C)=O)C1OC(C)=O (centres undefined),92 to 93 °C
18,CC(C)(C)C(CSC(F)F)=NO,92 to 95 °C
19,COc1cc2c(c3c1OC(C)(C)C3)C(c1cccc(Br)c1)=NCC2(C)C,127 to 129 °C
20,CC1(C)[C@@H](C(=O)Nc2cc(C(F)(F)F)n[nH]2)[C@@H]1c1ccccc1 (relative stereo),68 to 71 °C
21,COC(=O)c1nc(-c2ccc(Cl)cc2F)cc(NC(C)=O)c1O,201 to 206 °C
22,CCONC(=O)NNC(=O)CC,122 °C
23,Cc1cc(N(C)C)c2c(N)c(C(N)=O)sc2n1,167 to 170 °C
24,COc1ccc(-c2cccc(C#N)n2)cc1,86.3 to 86.6 °C
25,CCOCOCCCc1ccc(C(=O)O)cc1C12CC3CC(CC(C3)C1)C2,115 °C
26,Cc1cc(Br)c2[nH]c(=O)n(CCCN3CC=C(c4ccc(Cl)cc4)CC3)c(=O)c2c1,212 to 214 °C

# Continued, values first:
row,melting point,SMILES
1,141 to 142 °C,CCOC(=O)c1c(-c2ccccc2)c2c3ccccc3cnn2c1C(C)C
2,98 to 99 °C,Cc1nccn1-c1cccc(Nc2ccc(-c3ccoc3)cc2N)c1
3,100 to 101 °C,Cc1cc(O)c(SCCc2ccccc2)c(=O)o1
4,196 to 197 °C,CN(Cc1cc(C(F)(F)F)cc(C(F)(F)F)c1)C(=O)c1c(-c2ccc(F)cc2)c2ccsc2c(=O)n1C
5,155 to 157 °C,Cc1nc(-c2ccccc2)cc(-c2cccc([N+](=O)[O-])c2)c1CBr
6,208 to 209 °C,CCn1c(=O)c2c(nc(/C=C/c3ccc(OC(=O)c4ccccc4)cc3)n2C)n(CC)c1=O
7,190 to 192 °C,CC(=O)c1cnn(-c2ccnc3cc(Cl)ccc23)c1
8,213 to 214 °C,Cc1ccc(-c2cccc(/C=C/C(=O)Nc3ccc(-c4cccnc4)cc3)c2)cc1
9,161 to 162 °C,Cc1cccc(C)c1Oc1nc(Cl)nc(Oc2c(C)cccc2C)n1
10,157 °C,O=C(Oc1ccccc1)c1cc([N+](=O)[O-])c2ccccc2c1O
11,89 to 90 °C,COc1c(-c2cc3c(s2)CCC(C)(C)C3N=[N+]=[N-])ccc2c(=O)c(C(=O)O)cn(C3CC3)c12 (centres undefined)
12,86 to 88 °C,CS(=O)(=O)Nc1ccc(OCCCc2ccc(OCCCCOc3ccccc3)cc2)c(C(=O)O)c1
13,122 to 123 °C,CCOC(=O)C1=C(C)N=C(N)C(CC)(C(=O)OCC)C1c1cccc([N+](=O)[O-])c1 (centres undefined)
14,166 to 167 °C,CCCn1c(-c2ccccc2)cc(=O)c(C(=O)O)c1-c1ccccc1
15,> 300 °C,CCOC(=O)c1c[nH]c2cc(C(=O)NCCc3ccc(Cl)cc3)nn2c1=O
16,225 °C,O=C1CC(c2cccc(-n3ccnc3)c2)=Nc2cc(OCCO)c(-c3ccc(F)cc3)cc2N1
17,51 °C,CCCCCCCCCc1cnc(-c2ccc(OCc3ccc(CCCCCC)cc3)cc2)nc1
18,170 to 172 °C,O=C1CCC(N2Cc3c(OCc4ccc5ncc(CN6CCOCC6)n5c4)cccc3C2=O)C(=O)N1 (centres undefined)
19,177 to 179 °C,N=c1n[n+]([O-])c2ccccc2n1OC(=O)c1ccccc1
20,220 °C,NC(=O)C(OC(=O)c1ccccc1Cl)(C(N)=O)c1ccc(Cl)c(Cl)c1
21,106 °C,Cn1nc(-c2ccccc2C=O)c2ccccc21
22,232 to 235 °C,Cn1cc(C2=C(c3c4n(c5ccccc35)CC3(CCN(C(=O)OC(C)(C)C)C3)C4)C(=O)NC2=O)c2ccccc21 (centres undefined)
23,321 to 323 °C,CCc1nn(-c2ccc3cc(-c4ccc(-n5cnnc5)cc4)c(=O)oc3c2)nc1C
24,163 to 164 °C,Cc1ccccc1NC(=O)CN1C[C@@H](C)N(S(=O)(=O)c2cccc([N+](=O)[O-])c2)[C@@H](C)C1

row,melting point,SMILES
1,132 to 134 °C,CC1=C(C(=O)O)C(c2ccccc2[N+](=O)[O-])C(C(=O)OCCC#N)=C(C)N1 (centres undefined)
2,192 to 195 °C,O=C1C(=CO)c2ccccc2N1c1ccccc1
3,130 to 131 °C,c1ccc(NN2Cc3ccccc3C2)nc1
4,220 to 222 °C,Nc1nc(N)c2cc(Cc3ccccc3Cl)ccc2n1
5,212 to 214 °C,S=C1N[C@@H](c2ccccc2)[C@H](c2ccccc2)N1 (relative stereo)
6,190 to 191 °C,COc1cccc2oc(-c3ccc(C(F)(F)F)cc3)cc(=O)c12
7,159 to 161 °C,Nc1nc(-c2cc(Cl)ccc2Cl)nc(N2CCC(Cc3ccccc3)CC2)n1
8,184 to 186 °C,COc1ccc(-c2cc(C(N)=O)c(=O)n(CC=Cc3ccccc3)n2)cc1
9,197 °C,O=C(c1ccc(Cl)cc1)c1c(Cl)cc2n1CCC2C(=O)O (centres undefined)
10,226 °C,COC(=O)c1sccc1Nc1ccnc2c(Cl)cccc12
11,211 to 213 °C,N#Cc1ccc(Cn2cncn2)cc1-c1ccc(O)cc1
12,49 to 50 °C,COC(=O)C[C@H](O)C[C@H](O)CCc1c(-c2ccc(F)cc2)c(-c2ccccc2)c(C(=O)NCc2ccc(F)cc2)n1C(C)C
13,184 to 185 °C,CC(C)(C)OC(=O)C(C1NC(C(=O)OCc2ccccc2)C2(CCN(c3ccccc3)CC2)S1)N1C(=O)c2ccccc2C1=O (centres undefined)
14,150 to 151 °C,COC(=O)c1ccc(Cc2cn(C)c3ccc(C(=O)NCC(C)CC(F)(F)F)cc23)c(OC)c1 (centres undefined)
15,107 to 112 °C,CCOCn1c(-c2ccc(Cl)cc2)c(S(=O)(=O)c2ccc(Cl)cc2)c(Br)c1C(F)(F)F
16,167 to 169 °C,O=Cc1cn(-c2c(Cl)cc(C(F)(F)F)cc2Cl)c2ccccc12
17,120 °C,O=C(O)CN(Cc1cccc(Cn2cc(C3c4ccccc4C=Cc4ccccc43)c(=S)[nH]c2=O)c1)C(=O)OCc1ccccc1
18,92 to 94 °C,COc1ccc(-c2nc(Cl)sc2-c2ccc(OC)cc2)cc1
19,317 to 318 °C,Nc1ncc2cc(-c3ccccc3)c(N)nc2n1
20,106 °C,Cc1cccc(CC(=O)c2ccnc(-c3ccc(C(=O)N4CCOCC4)cc3)c2)n1
21,225 °C,O=c1c(-c2cccc(C(F)(F)F)c2)coc2c(O)c(O)ccc12
22,156 to 159 °C,Clc1ccc(Cn2cnc3c(-c4ccco4)ncnc32)cc1
23,253 to 254 °C,Cc1nc2c3c(c(CO)cc2n1C)CCC(c1ccccc1)N3 (centres undefined)
